Values quoted from earlier work in patent US20250345336A1, “ALLOPURINOL ORAL SUSPENSION” (Extrovis AG, priority 2024, published 2025).

Oc1ncnc2[nH]ncc12 [Allopurinol, 1,5-dihydro-4H-pyrazolo [3,4-d] pyrimidin-4-one]
aqueous solubility: poor aqueous solubility
